Key:
[1] = molecular target: T1, human sEH (Homo sapiens, UniProt P34913); assay: sEH inhibition, kinetic fluorescent assay; format: biochemical
T1 sequence (P34913 1-555): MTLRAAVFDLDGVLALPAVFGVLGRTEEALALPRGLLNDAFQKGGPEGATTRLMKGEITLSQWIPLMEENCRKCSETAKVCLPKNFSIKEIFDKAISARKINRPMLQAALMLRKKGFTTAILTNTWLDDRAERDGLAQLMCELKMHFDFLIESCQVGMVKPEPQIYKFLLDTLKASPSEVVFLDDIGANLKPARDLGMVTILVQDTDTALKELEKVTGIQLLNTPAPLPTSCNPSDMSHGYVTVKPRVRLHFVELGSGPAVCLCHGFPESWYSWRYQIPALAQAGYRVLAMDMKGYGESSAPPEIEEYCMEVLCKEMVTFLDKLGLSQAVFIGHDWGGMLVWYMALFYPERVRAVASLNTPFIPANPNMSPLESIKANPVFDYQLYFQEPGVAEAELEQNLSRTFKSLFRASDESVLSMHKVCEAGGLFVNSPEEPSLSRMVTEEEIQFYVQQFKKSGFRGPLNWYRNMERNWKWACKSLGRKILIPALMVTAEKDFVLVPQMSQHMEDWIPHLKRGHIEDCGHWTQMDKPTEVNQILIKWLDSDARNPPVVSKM

[2] = Water solubility in sodium phosphate buffer; format: physicochemical; settings: for fold more soluble in water than 3a: compared with 3a
[3] = compared with 1a, sodium phosphate buffer pH 7.4, 0.1 M, 1% DMSO

CC12CC3CC(C)(C1)CC(NC(=S)Nc1ccccc1)(C3)C2 [1a]
fold more potent than 1b ([1]; compared with 1b): 2 fold | water solubility (in words) ([2]; sodium phosphate buffer pH 7.4, 0.1 M, 1% DMSO): poorly soluble in water

CCC(CC12CC3CC(CC(C3)C1)C2)NC(=S)Nc1ccccc1 (stereo not drawn) [1c]
fold less potent than 1a ([1]; compared with 1a): 25 fold

CC12CC3CC(C)(C1)CC(NC(=S)NCc1ccccc1)(C3)C2 [1d]
fold decrease in water solubility vs. 1a [2, 3]: 4 fold

CC12CC3CC(C)(C1)CC(NC(=S)Nc1ccc(F)cc1)(C3)C2 [1n]
fold more soluble in water vs. 1a [2, 3]: 4 fold

S=C(Nc1ccccc1)NC1C2CC3CC(C2)CC1C3 (stereo not drawn) [2a]
fold less potent than its urea analog ([1]; compared with urea analog): 13 fold

S=C(NCc1ccccc1)NC1C2CC3CC(C2)CC1C3 (stereo not drawn) [2b]
fold increase of inhibition potency vs. 2a ([1]; compared with 2a): 6.7 fold

S=C(NCCc1ccccc1)NC1C2CC3CC(C2)CC1C3 (stereo not drawn) [2c]
fold increase of inhibition potency vs. 2b ([1]; compared with 2b): 4 fold

S=C(NC12CC3CC(CC(C3)C1)C2)NC12CC3CC(CC(C3)C1)C2 [3a, di(adamantan-1yl)thiourea]
fold more water soluble than urea of corresponding structure ([2]; compared with corresponding urea, urea data ref 17 for 3a): 4.7 fold

S=C(Nc1ccc(C23CC4CC(CC(C4)C2)C3)cc1)Nc1ccc(C23CC4CC(CC(C4)C2)C3)cc1 [3j]
fold decrease in inhibition potency vs. 3a ([1]; compared with 3a): 1367 fold | fold more soluble in water than 3a [2]: 3 fold

S=C(NC1C2CC3CC(C2)CC1C3)NC12CC3CC(CC(C3)C1)C2 (stereo not drawn) [4a]
fold more soluble in water than 3a [2]: 1.8 fold

S=C(NCCNC(=S)NC12CC3CC(CC(C3)C1)C2)NC12CC3CC(CC(C3)C1)C2 [6a]
fold less potent than the rest of thioureas in this series ([1]; compared with the other dithioureas of series 6): 10–137 fold

S=C(NCCCCCCCCCCNC(=S)NC12CC3CC(CC(C3)C1)C2)NC12CC3CC(CC(C3)C1)C2 [6h]
fold difference in water solubility vs. 6a (decrease) ([2]; compared with 6a (1,2-ethylene spacer)): 3 fold

S=C(NC1C2CC3CC(C2)CC1C3)NC1C2CC3CC(C2)CC1C3 (stereo not drawn) [compound 5]
fold more soluble in water than 3a [2]: 1.5 fold
